≈ marks a conversion by molar mass, not a printed value.
What was measured:
E. faecalis TH4126 = assay: MIC, broth microdilution, E. faecalis TH4126; type: cell-based, Enterococcus faecalis; conditions: for MIC, E. faecalis TH4126: broth microdilution, 0.01% polysorbate 80
Description: (§1) MIC[18] was tested by broth microdilution according to CLSI guidelines. The state of all teixobactin analogs is amorphous, and the compounds are in the salt form of trifluoroacetates. Analogs were stored in DMSO in the concentration of 10 mg/ml. The test medium for most species of bacteria was cation adjusted Mueller–Hinton Broth containing 0.01% polysorbate 80 to prevent analogs binding to plastic surfaces. […] For the test of Streptococci, MHB contains 3% lysed horse blood (Cleveland Scientific, Bath, OH). The concentration of cell was ~5 × 10^5 cells ml^−1. […] Besides the standard strains from ATCC, all the clinical isolates are from 302 hospital. The assay was done three times to confirm results (n = 3).

MRSA ATCC33591 = assay: MIC, broth microdilution, MRSA ATCC33591; type: cell-based; conditions: Staphylococcus aureus; broth microdilution (CLSI), MHB + 0.01% polysorbate 80; five independent experiments ± s.d. (n = 5)
Description: as §1

VRE TH4939 = assay: MIC, broth microdilution, VRE TH4939; type: cell-based, vancomycin resistant Enterococcus faecalis; conditions: for MIC, VRE TH4939: broth microdilution, 0.01% polysorbate 80
Description: as §1

E. faecalis TH4130 = assay: MIC, broth microdilution, E. faecalis TH4130; type: cell-based, Enterococcus faecalis; conditions: for MIC, E. faecalis TH4130: broth microdilution, 0.01% polysorbate 80
Description: as §1

E. faecalis ATCC29212 = assay: MIC, broth microdilution, E. faecalis ATCC29212; type: cell-based, Enterococcus faecalis; conditions: for MIC, E. faecalis ATCC29212: broth microdilution, 0.01% polysorbate 80
Description: as §1

E. faecalis TH4132 = assay: MIC, broth microdilution, E. faecalis TH4132; type: cell-based, Enterococcus faecalis; conditions: for MIC, E. faecalis TH4132: broth microdilution, 0.01% polysorbate 80
Description: as §1

MRSA BAA-1695 = assay: MIC, broth microdilution, MRSA BAA-1695; type: cell-based, Staphylococcus aureus; conditions: for MIC, MRSA BAA-1695: broth microdilution, 0.01% polysorbate 80
Description: as §1

S. aureus ATCC29213 = assay: MIC, broth microdilution, S. aureus ATCC29213; type: cell-based; conditions: Staphylococcus aureus, broth microdilution (CLSI), MHB + 0.01% polysorbate 80, five independent experiments ± s.d. (n = 5)
Description: as §1

S. aureus TH4112 = assay: MIC, broth microdilution, S. aureus TH4112; type: cell-based, Staphylococcus aureus; conditions: for MIC, S. aureus TH4112: broth microdilution, 0.01% polysorbate 80
Description: as §1

VRE TH4937 = assay: MIC, broth microdilution, VRE TH4937; type: cell-based, vancomycin resistant Enterococcus faecalis; conditions: for MIC, VRE TH4937: broth microdilution, 0.01% polysorbate 80
Description: as §1

MRSA TH4115 = assay: MIC, broth microdilution, MRSA TH4115; type: cell-based, Staphylococcus aureus; conditions: for MIC, MRSA TH4115: broth microdilution, 0.01% polysorbate 80
Description: as §1

MRSA ATCC 33591 = assay: Neutropenic mouse thigh infection model; conditions: 50 mg /kg i.v., 2 h post infection
S. pneumoniae D39 = assay: Mouse septicemia protection model; conditions: for survival number: 5 mg/kg i.v., 6 mice per group
MRSA = conditions: ref J Med Chem, 2018, 61, 2009; cited from earlier work
Source text: page 6: Reply: Thanks for the reviewer’s kind comments. […] (please see the reference 34). In the paper published in Scientific Reports, they proposed that two teixobactin bind pyrophosphate-MurNAc and glutamic acid residue of one Lipid II respectively. Undeniably, this is an important discovery. Its structure model also explains experimental obervations that the pyrophosphate-MurNAc moiety is the minimal motif for binding. We selected the similar truncated lipid II i ...

[1] = Enterococcus, VRE, broth microdilution (CLSI), MHB + 0.01% polysorbate 80, 37 °C, 16–20 h, n = 3

CC1(C)S[C@@H]2[C@H](NC(=O)[C@H](N)c3ccccc3)C(=O)N2[C@H]1C(=O)O [Ampicillin]
MIC (E. faecalis TH4126; Enterococcus faecalis, TH4126, broth microdilution (CLSI), MHB + 0.01% polysorbate 80, 37 °C, 16–20 h, n = 3): > 32 µg/mL
MIC, E. faecalis TH4126 (E. faecalis TH4126; replicate 1 (Source Data)): >32 µg/mL
MIC, E. faecalis TH4126 (E. faecalis TH4126; replicate 2 (Source Data)): >32 µg/mL
MIC, E. faecalis TH4126 (E. faecalis TH4126; replicate 3 (Source Data)): >32 µg/mL
MIC (MRSA ATCC33591): > 16 µg/mL
MIC (VRE TH4939; [1]): > 32 µg/mL
MIC, VRE TH4939 (VRE TH4939; replicate 1 (Source Data)): >32 µg/mL
MIC, VRE TH4939 (VRE TH4939; replicate 2 (Source Data)): >32 µg/mL
MIC, VRE TH4939 (VRE TH4939; replicate 3 (Source Data)): >32 µg/mL
MIC (E. faecalis TH4130; Enterococcus faecalis, TH4130, broth microdilution (CLSI), MHB + 0.01% polysorbate 80, 37 °C, 16–20 h, n = 3): 16 µg/mL
MIC, E. faecalis TH4130 (E. faecalis TH4130; replicate 1 (Source Data)): 16 µg/mL (≈ 45.8 µM)
MIC, E. faecalis TH4130 (E. faecalis TH4130; replicate 2 (Source Data)): 16 µg/mL (≈ 45.8 µM)
MIC, E. faecalis TH4130 (E. faecalis TH4130; replicate 3 (Source Data)): 16 µg/mL (≈ 45.8 µM)
MIC (E. faecalis ATCC29212; Enterococcus faecalis, ATCC29212, broth microdilution (CLSI), MHB + 0.01% polysorbate 80, 37 °C, 16–20 h, n = 3): 1 µg/mL
MIC, E. faecalis ATCC29212 (E. faecalis ATCC29212; replicate 1 (Source Data)): 1 µg/mL (≈ 2.86 µM)
MIC, E. faecalis ATCC29212 (E. faecalis ATCC29212; replicate 2 (Source Data)): 1 µg/mL (≈ 2.86 µM)
MIC, E. faecalis ATCC29212 (E. faecalis ATCC29212; replicate 3 (Source Data)): 1 µg/mL (≈ 2.86 µM)
MIC (E. faecalis TH4132; Enterococcus faecalis, TH4132, broth microdilution (CLSI), MHB + 0.01% polysorbate 80, 37 °C, 16–20 h, n = 3): 1 µg/mL
MIC, E. faecalis TH4132 (E. faecalis TH4132; replicate 1 (Source Data)): 1 µg/mL (≈ 2.86 µM)
MIC, E. faecalis TH4132 (E. faecalis TH4132; replicate 2 (Source Data)): 1 µg/mL (≈ 2.86 µM)
MIC, E. faecalis TH4132 (E. faecalis TH4132; replicate 3 (Source Data)): 1 µg/mL (≈ 2.86 µM)
MIC (MRSA BAA-1695; Staphylococcus aureus, broth microdilution (CLSI), MHB + 0.01% polysorbate 80, 37 °C, 16–20 h, n = 3): > 32 µg/mL
MIC, MRSA BAA-1695 (MRSA BAA-1695; replicate 1 (Source Data)): >32 µg/mL
MIC, MRSA BAA-1695 (MRSA BAA-1695; replicate 2 (Source Data)): >32 µg/mL
MIC, MRSA BAA-1695 (MRSA BAA-1695; replicate 3 (Source Data)): >32 µg/mL
MIC (S. aureus ATCC29213): 2 µg/mL
MIC (S. aureus TH4112; Staphylococcus aureus, TH4112, broth microdilution (CLSI), MHB + 0.01% polysorbate 80, 37 °C, 16–20 h, n = 3): 0.5 µg/mL
MIC, S. aureus TH4112 (S. aureus TH4112; replicate 1 (Source Data)): 0.5 µg/mL (≈ 1.43 µM)
MIC, S. aureus TH4112 (S. aureus TH4112; replicate 2 (Source Data)): 0.5 µg/mL (≈ 1.43 µM)
MIC, S. aureus TH4112 (S. aureus TH4112; replicate 3 (Source Data)): 0.5 µg/mL (≈ 1.43 µM)
MIC (VRE TH4937; [1]): > 32 µg/mL
MIC, VRE TH4937 (VRE TH4937; replicate 1 (Source Data)): >32 µg/mL
MIC, VRE TH4937 (VRE TH4937; replicate 2 (Source Data)): >32 µg/mL
MIC, VRE TH4937 (VRE TH4937; replicate 3 (Source Data)): >32 µg/mL
MIC (MRSA TH4115; Staphylococcus aureus, MRSA, broth microdilution (CLSI), MHB + 0.01% polysorbate 80, 37 °C, 16–20 h, n = 3): 32 µg/mL
MIC, MRSA TH4115 (MRSA TH4115; replicate 1 (Source Data)): 32 µg/mL (≈ 91.6 µM)
MIC, MRSA TH4115 (MRSA TH4115; replicate 2 (Source Data)): 32 µg/mL (≈ 91.6 µM)
MIC, MRSA TH4115 (MRSA TH4115; replicate 3 (Source Data)): 32 µg/mL (≈ 91.6 µM)

CN[C@H](CC(C)C)C(=O)N[C@H]1C(=O)N[C@@H](CC(N)=O)C(=O)N[C@H]2C(=O)N[C@H]3C(=O)N[C@H](C(=O)N[C@H](C(=O)O)c4cc(O)cc(O)c4-c4cc3ccc4O)[C@H](O)c3ccc(c(Cl)c3)Oc3cc2cc(c3O[C@@H]2O[C@H](CO)[C@@H](O)[C@H](O)[C@H]2O[C@H]2C[C@](C)(N)[C@H](O)[C@H](C)O2)Oc2ccc(cc2Cl)[C@H]1O [Vancomycin]
Log C.F.U. / mouse thigh (MRSA ATCC 33591; mouse 1): 3.903 Log C.F.U. / mouse thigh
Log C.F.U. / mouse thigh (MRSA ATCC 33591; mouse 2): 3.176 Log C.F.U. / mouse thigh
Log C.F.U. / mouse thigh (MRSA ATCC 33591; mouse 3): 3.748 Log C.F.U. / mouse thigh
survival number (S. pneumoniae D39; 24 h post-infection): 6
survival number (S. pneumoniae D39; 36 h post-infection): 6
survival number (S. pneumoniae D39; 48 h post-infection): 6
Survival rate 48 h after infection (S. pneumoniae D39; single dose 5 mg kg^−1 i.v., 1 h post infection, positive control, six female mice per group): 100%

Arg10-teixobactin
Loss of potency compared with teixobactin (MRSA): more than 4 fold
MIC against MRSA (MRSA): 2 µg/mL

— article PMC6646333 (Nature Communications, 2019)
